Laboratory results published in the supplement of paper PMC5579334.
± gives the standard deviation of the averaged measurements.

Key:
[1] = tested on: HSC2 (primary human Schwann cells); assay: % inhibition of CellTiter-Glo viability at highest tested concentration (72 h), relative to DMSO and benzethonium chloride controls; higher = more inhibition
Outline: (§1)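 For this screen, 384-well plates were preprinted with each compound at five concentrations in 10-fold steps and seeded with MPNST cell lines or primary human Schwann cells at 750–1000 cells per well. Incubation lasted 72 h at 37 °C, 5% CO2, and CellTiter-Glo ATP luminescence, scaled between vehicle and positive-control wells and averaged over duplicates where available, served as viability. Logistic fits with four parameters were applied. Relative IC50 (censored at the top concentration) and drug sensitivity score derive from these fits, and percent inhibition is at the top concentration.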

[2] = tested on: HSC1 (primary human Schwann cells); assay: as above
Outline: as §1

STS26T [3] = assay: as above
Outline: as §1

S462 [4] = assay: as above
Outline: as §1

HS-PSS [5] = assay: as above
Outline: as §1

YST-1 [6] = assay: as above
Outline: as §1

HS-Sch-2 [7] = assay: as above
Outline: as §1

ST8814 [8] = assay: as above
Outline: as §1

S1507-2 [9] = assay: as above
Outline: as §1

[10] = tested on: HSC2 (primary human Schwann cells); assay: drug sensitivity score (DSS, CellTiter-Glo viability, 72 h) (DSS (dimensionless)); higher = more sensitive; extreme values may be limits of the assay
Outline: as §1

[11] = tested on: HSC1 (primary human Schwann cells); assay: as above
Outline: as §1

STS26T [12] = assay: as above
Outline: as §1

S462 [13] = assay: as above
Outline: as §1

HS-PSS [14] = assay: as above
Outline: as §1

YST-1 [15] = assay: as above
Outline: as §1

HS-Sch-2 [16] = assay: as above
Outline: as §1

ST8814 [17] = assay: as above
Outline: as §1

S1507-2 [18] = assay: as above
Outline: as §1

[19] = tested on: HSC2 (primary human Schwann cells); assay: drug sensitivity score (DSS, CellTox-Green cytotoxicity, 72 h) (DSS (dimensionless)); higher = more cytotoxic; extreme values may be limits of the assay
Outline: (§2)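 MPNST cell lines and primary human Schwann cells were grown for 72 h at 37 °C in 384-well plates containing five 10-fold compound dilutions. CellTox-Green, added before seeding at a final 1:1000 dilution, gave fluorescence from DNA released by disrupted cells, and signals were scaled to vehicle and positive-control wells. Curves were fitted with a four-parameter logistic model. Drug sensitivity score and relative IC50 come from these fits, with IC50 censored at the top concentration.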

[20] = tested on: HSC1 (primary human Schwann cells); assay: as above
Outline: as §2

STS26T [21] = assay: as above
Outline: as §2

HS-PSS [22] = assay: as above
Outline: as §2

ST8814 [23] = assay: as above
Outline: as §2

S1507-2 [24] = assay: as above
Outline: as §2

SMILES	% inhibition [1] [%]	% inhibition [2] [%]	% inhibition (STS26T [3]) [%]	% inhibition (S462 [4]) [%]	% inhibition (HS-PSS [5]) [%]	% inhibition (YST-1 [6]) [%]	% inhibition (HS-Sch-2 [7]) [%]	% inhibition (ST8814 [8]) [%]	% inhibition (S1507-2 [9]) [%]	drug sensitivity score [10]	drug sensitivity score [11]	drug sensitivity score (STS26T [12])	drug sensitivity score (S462 [13])	drug sensitivity score (HS-PSS [14])	drug sensitivity score (YST-1 [15])	drug sensitivity score (HS-Sch-2 [16])	drug sensitivity score (ST8814 [17])	drug sensitivity score (S1507-2 [18])	drug sensitivity score [19]	drug sensitivity score [20]	drug sensitivity score (STS26T [21])	drug sensitivity score (HS-PSS [22])	drug sensitivity score (ST8814 [23])	drug sensitivity score (S1507-2 [24])
Cn1cnc2c(F)c(Nc3ccc(Br)cc3Cl)c(C(=O)NOCCO)cc21 [Selumetinib] (max concentration tested 10000 nM)	44.1	41.3	33.6	51.8 ± 5.1	12.8	5.28	35.6	51.4	50.8 ± 4.4	3.74	2.51	4.18	5.86 ± 0.93	0.02	0	2.54	5.82	7.78 ± 3.3	0	0	0	0	1.43	0.984 ± 0.39
COC(=O)c1ccc2c(c1)NC(=O)/C2=C(\Nc1ccc(N(C)C(=O)CN2CCN(C)CC2)cc1)c1ccccc1 [Nintedanib] (max concentration tested 10000 nM)	-4.16	0.553	2.06	-7.48 ± 1.2	45.7	39.7	63.5	2.22	-3.03 ± 4	0	0	0	0	1.83	3.79	2.94	0	0	0	0	0	0.43	0	0
Cc1cc(C(C)Nc2ccccc2)c2nc(N3CCOCC3)cc(=O)n2c1 (configuration not stated) [TGX-221] (max concentration tested 10000 nM)	6.57	16.5	41.7	7.98 ± 6.7	-2.49	26.6	12.3	21.4	28.4 ± 7.1	0	0.168	4.31	0.122 ± 0.17	0	0.99	0.19	1.34	3.32 ± 0.24	0	0	0.376	0	0	0
COC1=CC(c2cc3ccccc3[nH]2)=N/C1=C\c1[nH]c(C)cc1C [Obatoclax] (max concentration tested 10000 nM)	81.8	80.1	81.5	89.3 ± 2.9	39.5	25.6	31.2	93.7	95.5 ± 2	8.2	8.07	5.87	7.25 ± 0.51	2.94	2.23	2.53	5.7	7.89 ± 1.2	2.43	4.21	3.1	0	4.99	5.25 ± 0.56
CNC(=O)c1ccc(N2C(=S)N(c3cnc(C#N)c(C(F)(F)F)c3)C(=O)C23CCC3)cc1F [ARN 509] (max concentration tested 10000 nM)	-11.5	-4.96	2.87	5.15 ± 0.46	11.9	5.31	3.75	9.08	1.5 ± 14	0	0	0	0	2.56	0	0	0	0	0	0	0.407	0	0	0.0953 ± 0.14
COc1cc2c(Oc3ccc(NC(=O)C4(C(=O)Nc5ccc(F)cc5)CC4)cc3F)ccnc2cc1OCCCN1CCOCC1 [Foretinib] (max concentration tested 1000 nM)	53.2	56.5	48.4	50.2 ± 3	20.9	52.2	31.7	67.5	58.7 ± 5.1	3.44	3.91	3.62	3.22 ± 0.43	1.41	3.16	1.15	6.43	5.7 ± 0.45	0	0	4.03	0.08	2.96	1.26 ± 0.61
O=c1[nH]c(=O)n([C@H]2C[C@H](O)[C@@H](CO)O2)cc1F [Floxuridine] (max concentration tested 10000 nM)	53.8	53.1	77.3	84.1 ± 3.6	30.7	68.3	84.7	57.8	31.3 ± 10	10.6	6.07	21.5	22.4 ± 2.9	2.58	14.7	17.9	12.5	5.09 ± 3.2	0.287	1.27	7.21	0	2.95	0
Nc1cccc2c1C(=O)N(C1CCC(=O)NC1=O)C2=O (configuration not stated) [Pomalidomide] (max concentration tested 10000 nM)	-10.6	8.79	2.08	8.99 ± 10	-13.4	-0.59	-6.26	8.53	-0.849 ± 0.56	0	0	0	0.575 ± 0.81	0	0	0	0	0	0	0	0	0	0	0.571 ± 0.72
CC(=O)OC[C@H]1O[C@@H]([S-])[C@H](OC(C)=O)[C@@H](OC(C)=O)[C@@H]1OC(C)=O.CCP(CC)CC.[Au+] [Auranofin] (max concentration tested 2500 nM)	95.2	94.8	79.9	94.62 ± 0.92	75.4	91.7	99.9	66.9	25.1 ± 9.3	8.02	8.86	5.55	8.14 ± 2	4.86	5.04	9.71	3.73	1.36 ± 1	7.25	7.83	3.5	1.15	0.171	0.0037 ± 0.0052
COc1cccc2c1C(=O)c1c(O)c3c(c(O)c1C2=O)C[C@@](O)(C(=O)CO)C[C@@H]3O[C@H]1C[C@H](N)[C@H](O)[C@H](C)O1 [Doxorubicin] (max concentration tested 1000 nM)	99.6	99.1	98.4	98.561 ± 0.012	96.1	98.3	100	96.1	83.5 ± 6.7	11.2	11.9	12.7	13.1 ± 0.35	7.71	13.9	10.2	9.59	10.6 ± 1.9	18	0.0904	0.331	0.81	0	0.0502 ± 0.071
O=C(O)CCCc1ccc(N(CCCl)CCCl)cc1 [Chlorambucil] (max concentration tested 10000 nM)	21.9	24.7	-3.28	-2.04 ± 1.9	3.62	18.1	1.59	-14.6	-14.4 ± 0.28	0.471	0.621	0	0	0	0.78	0	0	0	0	0	0	0	0	0
NC(=O)Nc1cc(-c2cccc(F)c2)sc1C(=O)N[C@H]1CCCNC1 [AZD7762] (max concentration tested 1000 nM)	70.2	72.8	90.7	98.22 ± 0.35	61.9	71.9	90.7	86.2	80.47 ± 0.4	3.95	6.7	9.05	14.7 ± 0.2	4.8	4.02	12.7	8.3	10.9 ± 0.13	5.55	3.66	9.01	0.32	5.42	3.7 ± 0.91
CS(=O)(=O)OCCCCOS(C)(=O)=O [Busulfan] (max concentration tested 100000 nM)	-3.16	8.68	3.36	-16.5 ± 19	0.44	22.8	17.2	0.917	-7.23 ± 18	0	0	0	0	0	2.32	0.72	0	0	0	0	0	0	0	0
